Legend:
Phosphodiesterase 4 = Phosphodiesterase 4 (Homo sapiens, UniProt P27815+Q08499+Q07343+Q08493); experiment: Inhibitory activity against phosphodiesterase 4 carried out in the cytosol of human neutrophils; assay type: protein assay
Mus musculus = experiment: Percent inhibition of arachidonic acid induced mouse ear edema after 30 uM/kg peroral pretreatment; assay type: functional

| SMILES | Log IC50 (Phosphodiesterase 4) | Inhibition (Mus musculus) |
| --- | --- | --- |
| COc1ccc(C2=NN(C3C4CC5CC(C4)CC3C5)C(=O)[C@@H]3CC=CC[C@H]23)cc1OC (single isomer, unassigned; (+)) | -9.3 | 49% |
| COc1ccc(C2=NNC(=O)C3CC=CCC23)cc1OC1CCCC1 (centres undefined) | -7.1 |  |
| COc1ccc(C2CNC(=O)C2)cc1OC1CCCC1 (single isomer, unassigned; (-)) [ROLIPRAM] |  | 55% |
| CCOc1ccc(C2=NN(c3ccc(C(=O)O)cc3)C(=O)C3CC=CCC23)cc1OCC (racemic) | -7.7 | 48% |
| CCOC(=O)c1ccc(N2N=C(c3ccc(OCC)c(OCC)c3)C3CC=CCC3C2=O)cc1 (racemic) | -8 |  |
| COc1ccc([C@H](Cc2ccncc2)c2ccccc2)cc1OC1CCCC1 [CDP840] | -7.7 | 48% |
| COc1ccc(C2=NN(C3C4CC5CC(C4)CC3C5)C(=O)[C@H]3CC=CC[C@@H]23)cc1OC (single isomer, unassigned; (-)) | -6.9 |  |
| COc1ccc(C2=NNC(=O)[C@@H]3CCCC[C@H]23)cc1OC (relative stereo) | -6.9 |  |
| COc1ccc(C2=NN(C3C4CC5CC(C4)CC3C5)C(=O)C3CC=CCC23)cc1OC (racemic) | -9.2 | 51% |
| COc1ccc(C2=NNC(=O)[C@H]3CC=CC[C@@H]23)cc1OC | -6.1 |  |
| COc1ccc(C2=NNC(=O)C3CC=CCC23)cc1OC (racemic) | -7 |  |
| COc1ccc(C2=NNC(=O)[C@H]3CC=CC[C@@H]23)cc1OC1CCCC1 | -6.7 |  |
| COc1ccc(C2=NNC(=O)C3CCCCC23)cc1OC (centres undefined) | -6.4 |  |
| COc1ccc(C2=NNC(=O)[C@H]3CCCC[C@@H]23)cc1OC1CCCC1 | -5.8 |  |
| COc1ccc(C2=NNC(=O)C3CCCCC23)c2c1OC1(CCCC1)C2 (racemic) | -7.3 |  |
| CCOc1ccc(C2=NN(c3ccc(C(=O)O)cc3)C(=O)[C@@H]3CC=CC[C@H]23)cc1OCC | -8.3 | 47% |
| COc1ccc(C2=NNC(=O)[C@@H]3CCCC[C@H]23)c2c1OC1(CCCC1)C2 | -7.8 |  |
| CCOC(=O)c1ccc(N2N=C(c3ccc(OCC)c(OCC)c3)[C@H]3CC=CC[C@H]3C2=O)cc1 | -8.2 | 27% |
| COc1ccc(C2=NNC(=O)[C@H]3CC=CC[C@@H]23)c2c1OC1(CCCC1)C2 | -6.6 |  |
| COc1ccc(C2=NNC(=O)[C@@H]3CCCC[C@H]23)cc1OC1CCCC1 (relative stereo) | -7.1 |  |
| COc1ccc(C2=NNC(=O)C3CCCCC23)cc1OC1CCCC1 (centres undefined) | -6.8 |  |
| COc1ccc(C2=NNC(=O)[C@H]3CCCC[C@@H]23)cc1OC | -5.1 |  |
| COc1ccc([C@]2(C#N)CC[C@@H](C(=O)O)CC2)cc1OC1CCCC1 [CILOMILAST] |  | 33% |
| COc1ccc(C2=NNC(=O)[C@@H]3CC=CC[C@H]23)cc1OC (relative stereo) | -7.3 |  |
| COc1ccc(C2=NNC(=O)[C@@H]3CC=CC[C@H]23)c2c1OC1(CCCC1)C2 | -8.5 |  |
| COc1ccc(C2=NNC(=O)[C@@H]3CC=CC[C@H]23)cc1OC1CCCC1 (relative stereo) | -7.4 |  |
| COc1ccc(C2=NNC(=O)[C@H]3CCCC[C@@H]23)c2c1OC1(CCCC1)C2 | -5.6 |  |
| COc1ccc(C2=NNC(=O)C3CC=CCC23)c2c1OC1(CCCC1)C2 (racemic) | -8 |  |
